Laboratory results reported in patent US20110195900A1, “PEPTIDIC PTH RECEPTOR AGONISTS” (FERRING B.V., priority 2008, published 2011).
pEC50: −log10 of the molar value. Where two headings read alike, the source gives them in different places. Non-standard residues stand in square brackets, D forms with d. Residues, ends and D or L forms follow the SMILES beside them. 1Nal = N[C@@H](Cc1cccc2ccccc12)C(=O)O; β3hI = CC[C@H](C)[C@H](N)CC(=O)O; hSer = N[C@@H](CCO)C(=O)O; Nle = CCCC[C@H](N)C(=O)O; Aib = CC(C)(N)C(=O)O; βAla = NCCC(=O)O

Molecular target: T1, human PTH-1 receptor (Homo sapiens, UniProt Q03431)
T1 construct: expressed in transfected cells; host or cells: HEK-293
T1 sequence (Q03431 27-593): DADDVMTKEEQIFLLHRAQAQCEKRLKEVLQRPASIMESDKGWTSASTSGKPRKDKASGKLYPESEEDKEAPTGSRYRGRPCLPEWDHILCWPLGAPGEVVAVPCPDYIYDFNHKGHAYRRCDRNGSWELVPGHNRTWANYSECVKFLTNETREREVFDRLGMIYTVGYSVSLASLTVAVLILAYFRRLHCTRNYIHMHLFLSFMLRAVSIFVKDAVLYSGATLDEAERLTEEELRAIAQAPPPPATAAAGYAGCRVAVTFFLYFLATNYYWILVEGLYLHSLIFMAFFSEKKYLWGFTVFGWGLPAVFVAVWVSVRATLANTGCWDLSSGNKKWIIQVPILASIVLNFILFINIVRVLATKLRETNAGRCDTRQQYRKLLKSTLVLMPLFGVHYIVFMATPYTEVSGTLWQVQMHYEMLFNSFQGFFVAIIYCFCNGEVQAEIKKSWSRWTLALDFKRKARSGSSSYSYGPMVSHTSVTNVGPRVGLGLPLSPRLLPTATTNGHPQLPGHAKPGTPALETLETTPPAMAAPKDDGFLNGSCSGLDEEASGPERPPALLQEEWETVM
Test: Reporter gene assay (CRE-luciferase) for agonist activity in transiently transfected HEK-293 cells
Assay type: cell-based
Conditions: for hPTHR-2/hPTHR-1: ratio of EC50 values, selectivity for hPTH-1 receptor over hPTH-2 receptor
Description: Agonist activity of compounds on the human PTH-1 receptor was determined in a reporter gene assay by transiently transfecting HEK-293 cells with plasmids encoding human PTH-1 receptor under control of the SV40 promoter and a luciferase reporter gene under control of cAMP responsive elements (CRE). See Himmler et al, J. Recept. Res. 13 (1993) 79-94, for further guidance on this assay. Transfected cells were exposed to serial dilutions of compounds for 4-5 hours followed by lysis of cells, determination of luciferase activity, and determination of compound efficacies and EC50 values through non-linear regression.
PTH (1-34) was used as an internal control in each experiment and compounds were tested in at least three independent experiments. To determine selectivity, compounds were tested in luciferase-based transcriptional reporter gene assays expressing the human PTH-2 receptor.

[1] = Table 3, HEK-293 cells, CRE-luciferase, 4-5 hours exposure, read-out: hPTHR-1 EC50

| pEC50 [1] | Compound | pEC50 | selectivity for the hPTH-1 receptor over the hPTH-2 receptor (Table 3) [fold] | hPTHR-2/hPTHR-1 (Table 3) |
| --- | --- | --- | --- | --- |
|  | CCCC[C@H](NC(=O)[C@H](CC(C)C)NC(=O)[C@H](CCC(N)=O)NC(=O)[C@@H](NC(=O)[C@H](CCC(=O)O)NC(=O)[C@H](CO)NC(=O)[C@@H](NC(=O)C(C)(C)N)C(C)C)[C@@H](C)CC)C(=O)N[C@@H](Cc1c[nH]cn1)C(=O)N[C@@H](CC(N)=O)C(=O)N[C@@H](CC(C)C)C(=O)NCC(=O)N[C@@H](CCCCN)C(=O)N[C@@H](Cc1c[nH]cn1)C(=O)N[C@@H](CC(C)C)C(=O)N[C@@H](CC(N)=O)C(=O)NCCC(=O)N[C@@H](CCOC)C(=O)N[C@@H](CCC(=O)O)C(=O)N[C@@H](CCCNC(=N)N)C(=O)N[C@H](C(=O)N[C@@H](CCC(=O)O)C(=O)N[C@@H](Cc1cccc2ccccc12)C(=O)N[C@@H](CC(C)C)C(=O)N[C@@H](CCCNC(=N)N)C(=O)N[C@@H](CCCCN)C(=O)N[C@@H](CC(C)C)C(=O)N[C@@H](CC(C)C)C(=O)N[C@@H](CCC(N)=O)C(=O)N[C@@H](CC(=O)O)C(=O)N[C@H](C(=O)N[C@@H](Cc1c[nH]cn1)C(=O)N[C@@H](CC(N)=O)C(=O)N[C@@H](Cc1ccccc1)C(N)=O)C(C)C)C(C)C [SEQ ID NO: 3, [Aib^1, Nle^8, β-Ala^17, hSer(OMe)^18,1-Nal^23, Leu^27] hPTH (1-34)-NH2] (H-[Aib]VSEIQL[Nle]HNLGKHLN[βAla][hSer](Me)ERVE[1Nal]LRKLLQDVHNF-NH2; N-terminus assumed) | 10.22 | 766 | 766 |
|  | CCCC[C@H](NC(=O)[C@H](CC(C)C)NC(=O)[C@H](CCC(N)=O)NC(=O)[C@@H](NC(=O)[C@H](CCC(=O)O)NC(=O)[C@H](CO)NC(=O)[C@@H](NC(=O)C(C)(C)N)C(C)C)[C@@H](C)CC)C(=O)N[C@@H](Cc1c[nH]cn1)C(=O)N[C@@H](CO)C(=O)N[C@@H](CC(C)C)C(=O)NCC(=O)N[C@@H](CCCCN)C(=O)N[C@@H](Cc1c[nH]cn1)C(=O)N[C@@H](CC(C)C)C(=O)N[C@@H](CCCCN)C(=O)N[C@@H](CO)C(=O)N[C@H](CC(=O)N[C@@H](CCC(=O)O)C(=O)N[C@@H](CCCNC(=N)N)C(=O)N[C@H](C(=O)N[C@@H](CCC(=O)O)C(=O)N[C@@H](Cc1cccc2ccccc12)C(=O)N[C@@H](CC(C)C)C(=O)N[C@@H](CCCNC(=N)N)C(=O)N[C@@H](CCCCN)C(=O)N[C@@H](CC(C)C)C(=O)N[C@@H](CC(C)C)C(=O)N[C@@H](CCC(N)=O)C(=O)N[C@@H](CCCNC(=N)N)C(=O)N[C@H](C(=O)N[C@@H](Cc1c[nH]cn1)C(=O)N[C@@H](CCC(=O)O)C(=O)N[C@@H](CCC(=O)O)C(N)=O)C(C)C)C(C)C)[C@@H](C)CC [SEQ ID NO: 4, [Aib^1, Nle^8, Ser^10, Lys^16, β-hIle^18,1-Nal^23, Leu^27, Arg^30, Glu^33, Glu^34] hPTH (1-34)-NH2] (H-[Aib]VSEIQL[Nle]HSLGKHLKS[β3hI]ERVE[1Nal]LRKLLQRVHEE-NH2) | 10.40 |  | 110 |
| 9.68 | CCCC[C@H](NC(=O)[C@H](CO)NC(=O)[C@H](CC(N)=O)NC(=O)[C@H](CC(C)C)NC(=O)[C@H](Cc1c[nH]cn1)NC(=O)[C@H](CCCCN)NC(=O)CNC(=O)[C@H](CC(C)C)NC(=O)[C@H](CC(N)=O)NC(=O)[C@H](Cc1c[nH]cn1)NC(=O)[C@H](CCCC)NC(=O)[C@H](CC(C)C)NC(=O)[C@H](CCC(N)=O)NC(=O)[C@@H](NC(=O)[C@H](CCC(=O)O)NC(=O)[C@H](CO)NC(=O)[C@@H](NC(=O)[C@@H](N)CO)C(C)C)[C@@H](C)CC)C(=O)NCCC(=O)N[C@@H](CCCNC(=N)N)C(=O)N[C@H](C(=O)N[C@@H](CCC(=O)O)C(=O)N[C@@H](Cc1cccc2ccccc12)C(=O)N[C@@H](CC(C)C)C(=O)N[C@@H](CCCNC(=N)N)C(=O)N[C@@H](CCCCN)C(=O)N[C@@H](CCCCN)C(=O)N[C@@H](CC(C)C)C(=O)N[C@@H](CCC(N)=O)C(=O)N[C@@H](CC(=O)O)C(=O)N[C@H](C(=O)N[C@@H](Cc1c[nH]cn1)C(=O)N[C@@H](CC(N)=O)C(=O)N[C@@H](Cc1ccccc1)C(N)=O)C(C)C)C(C)C [SEQ ID NO: 7, [Nle^8,18, β-Ala^19,1-Nal^23] hPTH (1-34)-NH2] (H-SVSEIQL[Nle]HNLGKHLNS[Nle][βAla]RVE[1Nal]LRKKLQDVHNF-NH2) |  |  | 52 |
| 9.68 | CCCC[C@H](NC(=O)[C@H](CC(C)C)NC(=O)[C@H](CCC(N)=O)NC(=O)[C@@H](NC(=O)[C@H](CCC(=O)O)NC(=O)[C@H](CO)NC(=O)[C@@H](NC(=O)[C@@H](N)CO)C(C)C)[C@@H](C)CC)C(=O)N[C@@H](Cc1c[nH]cn1)C(=O)N[C@@H](CC(N)=O)C(=O)N[C@@H](CC(C)C)C(=O)NCC(=O)N[C@@H](CCCCN)C(=O)N[C@@H](Cc1c[nH]cn1)C(=O)N[C@@H](CC(C)C)C(=O)N[C@@H](CC(N)=O)C(=O)N[C@@H](CO)C(=O)N[C@H](CC(=O)N[C@@H](CCC(=O)O)C(=O)N[C@@H](CCCNC(=N)N)C(=O)N[C@H](C(=O)N[C@@H](CCC(=O)O)C(=O)N[C@@H](Cc1cccc2ccccc12)C(=O)N[C@@H](CC(C)C)C(=O)N[C@@H](CCCNC(=N)N)C(=O)N[C@@H](CCCCN)C(=O)N[C@@H](CCCCN)C(=O)N[C@@H](CC(C)C)C(=O)N[C@@H](CCC(N)=O)C(=O)N[C@@H](CC(=O)O)C(=O)N[C@H](C(=O)N[C@@H](Cc1c[nH]cn1)C(=O)N[C@@H](CC(N)=O)C(=O)N[C@@H](Cc1ccccc1)C(=O)O)C(C)C)C(C)C)[C@@H](C)CC [SEQ ID NO: 8, [Nle^8, β-hIle^18,1-Nal^23] hPTH (1-34)-OH] (H-SVSEIQL[Nle]HNLGKHLNS[β3hI]ERVE[1Nal]LRKKLQDVHNF-OH) |  |  | 124 |
|  | CCCC[C@H](NC(=O)[C@H](CC(C)C)NC(=O)[C@H](CCC(N)=O)NC(=O)[C@@H](NC(=O)[C@H](CCC(=O)O)NC(=O)[C@H](CO)NC(=O)[C@@H](NC(=O)[C@@H](N)CO)C(C)C)[C@@H](C)CC)C(=O)N[C@@H](Cc1c[nH]cn1)C(=O)N[C@@H](CC(N)=O)C(=O)N[C@@H](CC(C)C)C(=O)NCC(=O)N[C@@H](CCCCN)C(=O)N[C@@H](Cc1c[nH]cn1)C(=O)N[C@@H](CC(C)C)C(=O)N[C@@H](CC(N)=O)C(=O)N[C@@H](CO)C(=O)N[C@H](CC(=O)N[C@@H](CCC(=O)O)C(=O)N[C@@H](CCCNC(=N)N)C(=O)N[C@H](C(=O)N[C@@H](CCC(=O)O)C(=O)N[C@@H](Cc1cccc2ccccc12)C(=O)N[C@@H](CC(C)C)C(=O)N[C@@H](CCCNC(=N)N)C(=O)N[C@@H](CCCCN)C(=O)N[C@@H](CC(C)C)C(=O)N[C@@H](CC(C)C)C(=O)N[C@@H](CCC(N)=O)C(=O)N[C@@H](CC(=O)O)C(=O)N[C@H](C(=O)N[C@@H](Cc1c[nH]cn1)C(=O)N[C@@H](CC(N)=O)C(=O)N[C@@H](Cc1ccccc1)C(=O)O)C(C)C)C(C)C)[C@@H](C)CC [SEQ ID NO: 9, [Nle^8, β-hIle^18,1-Nal^23, Leu^27] hPTH (1-34)-OH] (H-SVSEIQL[Nle]HNLGKHLNS[β3hI]ERVE[1Nal]LRKLLQDVHNF-OH; N-terminus assumed) | 9.85 |  | 158 |
